According to patent publication US10519446B2, “Organic compounds to treat hepatitis B virus” (priority 2013, dated 2019):
Read-outs that look alike come from different tables or passages of the source.

Columns and labels:
FVII (Factor VII) = test: RNA interference against FVII by 19-mer siRNAs with 3′ end caps (FIG. 2); parameters: species or system mouse; details: mF7-III 19-mer blunt-ended, A12S17
HBV = test: Efficacy of HBV RNAi agents in HepG2.2.15 cells in vitro (sAg KD); assay type: cell-based, Hepatitis B Virus; details: for Max % KD, EXPERIMENT 1 / Max % KD, EXPERIMENT 2: percent knockdown; for Percent sAg remaining at maximum knockdown: percent residual gene activity
Experimental: Table 9. Efficacy of HBV RNAi agents.
The efficacy of various HBV RNAi agents was tested in HepG2.2.15 cells in vitro. 10 μM was used. […] It is noted that, due to the nature of the HepG2.2.15 cell line, it is difficult to achieve greater than 50% knockdown.

[1] = Serum stability of siRNAs with 3′ end caps in human serum; assay type: in vitro ADME; details: 100% human serum; 37° C.; up to 24 h; gel, SYBR gold
[2] = Serum stability of siRNAs with 3′ end caps in mouse serum; assay type: in vitro ADME; details: 100% mouse serum; 37° C.; up to 24 h; gel, SYBR gold
[3] = HepG2.2.15 cells in vitro, Experiment 1, read-out: EC50 (nM), EXPERIMENT 1
[4] = average of Experiments 1 and 2, read-out: EC50 (nM), AVERAGE
[5] = Experiment 2, HepG2.2.15 cells, nM printed only at the Experiment 1 and AVERAGE EC50 heads, read-out: EC50, EXPERIMENT 2

Row | Compound | RNA interference against FVII (FVII (Factor VII)) | Max % KD, EXPERIMENT 1 (HBV; Experiment 1, HepG2.2.15 cells) | Percent sAg remaining at maximum knockdown (HBV; Experiment 1, HepG2.2.15 cells) | EC50 (HBV; [3]) | Max % KD, AVERAGE (HBV; average of Experiments 1 and 2) | EC50 (HBV; [4]) | stability in human serum [1] | stability in mouse serum [2] | EC50 (HBV; [5]) | Max % KD, EXPERIMENT 2 (HBV; Experiment 2, HepG2.2.15 cells) | Percent sAg remaining at maximum knockdown (HBV; Experiment 2, HepG2.2.15 cells)
1 | OCCOCCOCCO [Triethylene glycol] | allow the RNAi agent to perform RNA interference | – | – | – | – | – | – | – | – | – | –
2 | 12: "Twelve of the best HBV RNAi agents identified are listed below, in various formats, in Tables 8A-8E, 9 and 10" (sense GGACUUCUCUCAAUUUUCU; antisense AGAAAAUUGAGAGAAGUCC; chemistry not given here) [Number 12] | – | 36.89% | 63.11% | 0.093 nM | 36.89% | 0.093 nM | – | – | – | – | –
3 | OCCOCCOCCO [glycol, triethylene glycol] | – | – | – | – | – | – | increased stability | increased stability | – | – | –
4 | 11: "An 18-mer ... with the sequences of Number 11E in Table 10"; "an additional HBV RNAi agent, HBV 279" (sense GGUUCUUCUGGAUUAUCAA; antisense UUGAUAAUCCAGAAGAACC; chemistry not given here) | – | 65.39% | 34.61% | 0.039 nM | 59.695% | 0.07 nM | – | – | 0.105 nM | 54% | 46%
5 | 9: "HBV RNAi agents numbered 1 to 10"; "The RNAi agents used are listed in Table 8E" (18-mer format) (sense GGAGGCUGUAGGCAUAAAU; antisense AUUUAUGCCUACAGCCUCC; chemistry not given here) [Number 9] | – | 48.8% | 51.2% | 0.131 nM | 49.4% | 0.4 nM | – | – | 0.67 nM | 50% | 50%
6 | 5: "One sequence used was designated siHBV_1599_18mer_CAM, and corresponds to Number 5 in Table 8E" (sense CCGUGUGCACUUCGCUUCA; antisense UGAAGCGAAGUGCACACGG; chemistry not given here) | – | 41.3% | 58.7% | 0.127 nM | 39.55% | 0.07 nM | – | – | 0.013 nM | 37.8% | 62.2%
7 | C1C2CC3CC1CC(C2)C3 [Adamantane] | allow the RNAi agent to perform RNA interference | – | – | – | – | – | – | – | – | – | –
8 | 6: "HBV RNAi agents numbered 1 to 10"; "The RNAi agents used are listed in Table 8E" (18-mer format) (sense GGCUGUAGGCAUAAAUUGG; antisense CCAAUUUAUGCCUACAGCC; chemistry not given here) [Number 6] | – | 37.3% | 62.7% | 0.008 nM | 38.15% | 0.07 nM | – | – | 0.13 nM | 39% | 61%
9 | C[C@H](CCC(=O)O)[C@H]1CC[C@H]2[C@@H]3CC[C@@H]4C[C@H](O)CC[C@]4(C)[C@H]3CC[C@]12C [lithochol, lithocholic acid] | – | – | – | – | – | – | less stable | increased stability | – | – | –
10 | 10: "HBV RNAi agents numbered 1 to 10"; "The RNAi agents used are listed in Table 8E" (18-mer format) (sense GAGAUUAGGUUAAAGGUCU; antisense AGACCUUUAACCUAAUCUC; chemistry not given here) [Number 10] | – | 57.3% | 42.7% | 0.066 nM | 54.1% | 0.25 nM | – | – | 0.437 nM | 50.9% | 49.1%
11 | c1ccc(-c2ccccc2)cc1 [Biphenyl] | allow the RNAi agent to perform RNA interference | – | – | – | – | – | increased stability | increased stability | – | – | –
12 | 7: "HBV RNAi agents numbered 1 to 10"; "The RNAi agents used are listed in Table 8E" (18-mer format) (sense GCUGUAGGCAUAAAUUGGU; antisense ACCAAUUUAUGCCUACAGC; chemistry not given here) [Number 7] | – | 41.5% | 58.5% | 0.038 nM | 40.9% | 0.22 nM | – | – | 0.409 nM | 40.3% | 59.7%
13 | 8: "HBV RNAi agents numbered 1 to 10"; "The RNAi agents used are listed in Table 8E" (18-mer format) (sense CAGCAAUGUCAACGACCGA; antisense UCGGUCGUUGACAUUGCUG; chemistry not given here) [Number 8] | – | 37.5% | 62.5% | 0.025 nM | 47.65% | 0.1 nM | – | – | 0.177 nM | 57.8% | 42.2%
14 | 3: "HBV RNAi agents numbered 1 to 10"; "The RNAi agents used are listed in Table 8E" (18-mer format) (sense CCAUACUGCGGAACUCCUA; antisense UAGGAGUUCCGCAGUAUGG; chemistry not given here) [Number 3] | – | 49.8% | 50.2% | 0.111 nM | 44.25% | 0.06 nM | – | – | 0.016 nM | 38.7% | 61.3%
15 | 4: "HBV RNAi agents numbered 1 to 10"; "The RNAi agents used are listed in Table 8E" (18-mer format) (sense GAGGCUGUAGGCAUAAAUU; antisense AAUUUAUGCCUACAGCCUC; chemistry not given here) [Number 4] | – | 43.3% | 56.7% | 0.017 nM | 45.95% | 0.04 nM | – | – | 0.056 nM | 48.6% | 51.4%
